Assay results taken from BindingDB's records for patent US20240199535 (Immunic, 2024).

Molecular target: Dihydroorotate dehydrogenase (quinone), mitochondrial (Homo sapiens, UniProt Q02127)
Sequence (Q02127 whole entry): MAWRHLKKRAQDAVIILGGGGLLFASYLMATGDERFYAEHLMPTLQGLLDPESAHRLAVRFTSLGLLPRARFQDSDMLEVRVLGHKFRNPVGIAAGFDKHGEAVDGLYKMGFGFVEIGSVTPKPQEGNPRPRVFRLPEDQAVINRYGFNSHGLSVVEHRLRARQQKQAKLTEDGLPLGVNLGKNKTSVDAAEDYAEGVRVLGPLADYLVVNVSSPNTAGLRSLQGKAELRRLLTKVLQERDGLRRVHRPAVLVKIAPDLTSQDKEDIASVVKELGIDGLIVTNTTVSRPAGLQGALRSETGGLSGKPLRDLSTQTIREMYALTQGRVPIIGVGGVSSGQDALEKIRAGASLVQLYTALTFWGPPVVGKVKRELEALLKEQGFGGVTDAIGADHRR
Procedure: Briefly, the hDHODH concentration was adjusted in a way that an average slope of approximately 0.2 AU/min served as the positive control (e.g. without inhibitor). The standard assay mixture contained 60 μM 2,6-dichloroindophenol, 50 μM decylubiquinone and 100 μM dihydroorotate. The hDHODH enzyme with or without at least six different concentrations of the compounds was added and measurements were performed in 50 mM TrisHCl, 150 mM KCl and 0.1% Triton X-100 at pH 8.0 and at 30° C. The reaction was started by adding dihydroorotate and measuring the absorption at 600 nm for 2 min. For the determination of the IC50 values, each data point was recorded in triplicate. For the determination of the inhibitory constant Ki, the KM values for DHO and decylubichinon were determined. Afterwards, the compounds were diluted in a dilution series depending on their IC50 values in DMSO.

| SMILES | Ki [nM] |
| --- | --- |
| O=C(Nc1c(F)c(F)c(-c2cccc(OC(F)(F)F)c2)c(F)c1F)c1ccsc1C(=O)O [US20240199535, Example 4] | 3.7 |
| O=C(O)C1=C(C(=O)Nc2ccc(-c3cccc(OC(F)F)c3)cc2F)CCC1 [US20240199535, Example 5] | 1820 |
